Experimental data from patent publication EP4745135A1 (Gluetacs Therapeutics (Shanghai) Co., Ltd., priority 2023, dated 2025).

How the values were obtained:
IKZF2 = molecular target: T1, IKZF2 (Homo sapiens, UniProt Q96SW2+Q9UKS7); assay: Western blot, degradation of substrate protein in hPBMCs; assay type: cell-based; conditions: Western blot, 24 hours of compound treatment, compounds tested at 50 nM and 500 nM (concentration for the table not stated)
T1 construct: effects of the compounds of the present disclosure on the expression of target proteins in cells; endogenous in cells; host or cells: human PBMCs (Milecell Biotechnologies)

CK1α = molecular target: T2, CK1α (Homo sapiens, UniProt P48729+Q96SW2); assay: as above; assay type: cell-based; conditions: Western blot, 24 hours of compound treatment, compounds tested at 50 nM and 500 nM (concentration for the table not stated)
T2 construct: effects of the compounds of the present disclosure on the expression of target proteins in cells; endogenous in cells; host or cells: human PBMCs (Milecell Biotechnologies)

WEE1 = molecular target: T3, WEE1 (Homo sapiens, UniProt P30291+Q96SW2); assay: as above; assay type: cell-based; conditions: Western blot, 24 hours of compound treatment, compounds tested at 50 nM and 500 nM (concentration for the table not stated)
T3 construct: effects of the compounds of the present disclosure on the expression of target proteins in cells; endogenous in cells; host or cells: human PBMCs (Milecell Biotechnologies)

IKZF1 = molecular target: T4, IKZF1 (Homo sapiens, UniProt Q13422+Q96SW2); assay: as above; assay type: cell-based; conditions: Western blot, 24 hours of compound treatment, compounds tested at 50 nM and 500 nM (concentration for the table not stated)
T4 construct: effects of the compounds of the present disclosure on the expression of target proteins in cells; endogenous in cells; host or cells: human PBMCs (Milecell Biotechnologies)

IKZF3 = molecular target: T5, IKZF3 (Homo sapiens, UniProt Q96SW2+Q9UKT9); assay: as above; assay type: cell-based; conditions: Western blot, 24 hours of compound treatment, compounds tested at 50 nM and 500 nM (concentration for the table not stated)
T5 construct: effects of the compounds of the present disclosure on the expression of target proteins in cells; endogenous in cells; host or cells: human PBMCs (Milecell Biotechnologies)

GSPT1 = assay: as above; assay type: cell-based, Human; conditions: Western blot, 24 hours of compound treatment, compounds tested at 50 nM and 500 nM (concentration for the table not stated)
[1] = molecular target: T6, human Cereblon WT GST-tagged protein (Homo sapiens, UniProt Q96SW2); assay: CRBN-binding affinity, HTRF (CEREBLON BINDING kit); conditions: for inhibition at 0.5 µM: read-out: Inhibition Rate at 0.5 µM (%); for inhibition at 2 µM: read-out: Inhibition Rate at 2 µM (%)
T6 construct: purchased CISBIO 64BDCRBNPEH
T6 sequence (Q96SW2 whole entry): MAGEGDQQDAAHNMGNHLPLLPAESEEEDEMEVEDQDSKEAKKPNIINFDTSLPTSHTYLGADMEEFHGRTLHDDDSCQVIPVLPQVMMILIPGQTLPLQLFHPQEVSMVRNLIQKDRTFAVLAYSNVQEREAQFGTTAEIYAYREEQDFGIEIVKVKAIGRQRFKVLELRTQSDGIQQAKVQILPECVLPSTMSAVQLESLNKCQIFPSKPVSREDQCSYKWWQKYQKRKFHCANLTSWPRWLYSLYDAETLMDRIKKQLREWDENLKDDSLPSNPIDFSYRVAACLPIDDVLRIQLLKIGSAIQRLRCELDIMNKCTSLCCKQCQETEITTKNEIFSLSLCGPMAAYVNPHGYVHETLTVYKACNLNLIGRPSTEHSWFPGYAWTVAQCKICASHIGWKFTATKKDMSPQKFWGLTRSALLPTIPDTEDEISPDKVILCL

T2 sequence (P48729 whole entry): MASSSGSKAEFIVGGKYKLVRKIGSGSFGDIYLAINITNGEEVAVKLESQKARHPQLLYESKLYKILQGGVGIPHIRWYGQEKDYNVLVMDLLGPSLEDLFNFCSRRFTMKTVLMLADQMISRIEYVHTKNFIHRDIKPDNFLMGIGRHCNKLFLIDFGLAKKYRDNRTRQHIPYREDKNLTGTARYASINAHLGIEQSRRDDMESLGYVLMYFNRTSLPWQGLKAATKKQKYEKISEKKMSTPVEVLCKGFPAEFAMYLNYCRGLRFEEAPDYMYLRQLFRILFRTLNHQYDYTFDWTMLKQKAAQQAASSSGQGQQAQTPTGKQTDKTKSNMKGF
T2 sequence (Q96SW2 whole entry): as the sequence (Q96SW2 whole entry) above
T2 sequence (Q16531 whole entry partner): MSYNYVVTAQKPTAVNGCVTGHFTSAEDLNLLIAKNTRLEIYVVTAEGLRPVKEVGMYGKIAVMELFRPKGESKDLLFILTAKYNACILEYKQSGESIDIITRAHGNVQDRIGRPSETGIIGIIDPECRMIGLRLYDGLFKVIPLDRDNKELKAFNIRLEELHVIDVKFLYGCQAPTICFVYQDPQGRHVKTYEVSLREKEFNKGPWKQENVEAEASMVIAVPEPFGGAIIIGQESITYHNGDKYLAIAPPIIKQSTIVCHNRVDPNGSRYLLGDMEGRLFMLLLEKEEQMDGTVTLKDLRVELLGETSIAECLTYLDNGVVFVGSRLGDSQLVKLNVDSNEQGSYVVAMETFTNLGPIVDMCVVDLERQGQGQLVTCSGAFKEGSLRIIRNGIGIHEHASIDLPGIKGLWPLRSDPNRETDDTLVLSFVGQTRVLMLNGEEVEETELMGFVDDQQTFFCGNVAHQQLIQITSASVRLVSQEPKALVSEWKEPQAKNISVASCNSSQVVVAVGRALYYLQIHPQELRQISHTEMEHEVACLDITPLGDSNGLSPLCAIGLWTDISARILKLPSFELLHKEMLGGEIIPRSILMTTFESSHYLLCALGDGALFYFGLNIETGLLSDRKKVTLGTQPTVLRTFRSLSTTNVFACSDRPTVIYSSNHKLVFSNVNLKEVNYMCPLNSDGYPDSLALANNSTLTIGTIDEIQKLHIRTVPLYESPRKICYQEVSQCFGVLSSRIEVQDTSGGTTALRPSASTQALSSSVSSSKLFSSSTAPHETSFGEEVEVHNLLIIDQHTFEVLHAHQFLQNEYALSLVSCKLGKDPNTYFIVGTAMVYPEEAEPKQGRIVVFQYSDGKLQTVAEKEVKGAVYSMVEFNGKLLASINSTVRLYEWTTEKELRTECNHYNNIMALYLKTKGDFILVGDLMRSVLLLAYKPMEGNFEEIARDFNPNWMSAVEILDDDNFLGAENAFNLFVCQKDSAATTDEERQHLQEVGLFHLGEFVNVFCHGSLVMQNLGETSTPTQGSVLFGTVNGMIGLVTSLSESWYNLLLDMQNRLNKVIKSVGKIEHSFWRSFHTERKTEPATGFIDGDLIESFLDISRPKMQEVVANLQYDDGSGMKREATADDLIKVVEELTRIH
T3 sequence (P30291 whole entry): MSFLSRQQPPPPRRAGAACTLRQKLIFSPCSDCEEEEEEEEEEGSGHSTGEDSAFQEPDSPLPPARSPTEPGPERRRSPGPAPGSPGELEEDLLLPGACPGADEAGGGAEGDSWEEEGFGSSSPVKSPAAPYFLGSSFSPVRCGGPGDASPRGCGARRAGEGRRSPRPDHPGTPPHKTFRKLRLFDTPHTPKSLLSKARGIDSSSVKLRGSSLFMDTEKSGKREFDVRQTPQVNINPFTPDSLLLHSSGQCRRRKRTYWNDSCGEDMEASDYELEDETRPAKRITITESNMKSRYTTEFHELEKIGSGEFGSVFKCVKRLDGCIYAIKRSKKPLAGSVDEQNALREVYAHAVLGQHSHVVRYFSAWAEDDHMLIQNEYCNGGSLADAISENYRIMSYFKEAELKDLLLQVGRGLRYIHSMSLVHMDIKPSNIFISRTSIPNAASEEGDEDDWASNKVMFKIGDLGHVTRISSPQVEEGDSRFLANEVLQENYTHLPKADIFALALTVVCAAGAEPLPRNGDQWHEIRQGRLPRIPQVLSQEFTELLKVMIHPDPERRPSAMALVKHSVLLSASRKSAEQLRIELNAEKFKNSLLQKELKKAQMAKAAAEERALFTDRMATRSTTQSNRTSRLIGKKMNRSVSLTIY
T3 sequence (Q96SW2 whole entry): as the sequence (Q96SW2 whole entry) above
T3 sequence (Q16531 whole entry partner): as the sequence (Q16531 whole entry partner) above
T1 sequence (Q9UKS7 whole entry): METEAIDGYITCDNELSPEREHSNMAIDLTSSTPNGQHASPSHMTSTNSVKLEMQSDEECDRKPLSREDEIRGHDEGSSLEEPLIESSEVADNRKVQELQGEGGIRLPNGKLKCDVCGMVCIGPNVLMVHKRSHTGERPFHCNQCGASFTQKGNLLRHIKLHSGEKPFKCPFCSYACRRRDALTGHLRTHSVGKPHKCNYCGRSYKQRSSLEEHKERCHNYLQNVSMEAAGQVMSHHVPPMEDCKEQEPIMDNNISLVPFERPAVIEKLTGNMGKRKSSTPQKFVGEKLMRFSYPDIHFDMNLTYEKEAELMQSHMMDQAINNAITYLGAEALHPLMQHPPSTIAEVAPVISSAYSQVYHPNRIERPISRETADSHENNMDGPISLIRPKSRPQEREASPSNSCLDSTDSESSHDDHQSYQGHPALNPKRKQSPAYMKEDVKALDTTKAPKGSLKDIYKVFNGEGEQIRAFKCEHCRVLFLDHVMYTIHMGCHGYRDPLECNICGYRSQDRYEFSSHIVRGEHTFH
T1 sequence (Q96SW2 whole entry): as the sequence (Q96SW2 whole entry) above
T1 sequence (Q16531 whole entry partner): as the sequence (Q16531 whole entry partner) above
T5 sequence (Q9UKT9 whole entry): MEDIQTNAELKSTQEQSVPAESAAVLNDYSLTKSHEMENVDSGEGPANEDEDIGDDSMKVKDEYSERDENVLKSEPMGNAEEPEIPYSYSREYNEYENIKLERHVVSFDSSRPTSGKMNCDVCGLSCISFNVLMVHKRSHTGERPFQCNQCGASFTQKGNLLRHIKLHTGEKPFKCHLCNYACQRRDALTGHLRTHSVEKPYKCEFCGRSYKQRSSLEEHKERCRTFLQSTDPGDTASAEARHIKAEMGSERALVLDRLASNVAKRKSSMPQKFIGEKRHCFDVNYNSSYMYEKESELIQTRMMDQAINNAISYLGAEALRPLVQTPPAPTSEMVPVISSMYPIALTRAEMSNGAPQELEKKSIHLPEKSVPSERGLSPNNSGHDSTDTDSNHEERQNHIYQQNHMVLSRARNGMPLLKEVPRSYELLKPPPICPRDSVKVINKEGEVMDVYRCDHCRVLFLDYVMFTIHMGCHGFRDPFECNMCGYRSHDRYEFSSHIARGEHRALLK
T5 sequence (Q96SW2 whole entry): as the sequence (Q96SW2 whole entry) above
T5 sequence (Q16531 whole entry partner): as the sequence (Q16531 whole entry partner) above
T4 sequence (Q13422 whole entry): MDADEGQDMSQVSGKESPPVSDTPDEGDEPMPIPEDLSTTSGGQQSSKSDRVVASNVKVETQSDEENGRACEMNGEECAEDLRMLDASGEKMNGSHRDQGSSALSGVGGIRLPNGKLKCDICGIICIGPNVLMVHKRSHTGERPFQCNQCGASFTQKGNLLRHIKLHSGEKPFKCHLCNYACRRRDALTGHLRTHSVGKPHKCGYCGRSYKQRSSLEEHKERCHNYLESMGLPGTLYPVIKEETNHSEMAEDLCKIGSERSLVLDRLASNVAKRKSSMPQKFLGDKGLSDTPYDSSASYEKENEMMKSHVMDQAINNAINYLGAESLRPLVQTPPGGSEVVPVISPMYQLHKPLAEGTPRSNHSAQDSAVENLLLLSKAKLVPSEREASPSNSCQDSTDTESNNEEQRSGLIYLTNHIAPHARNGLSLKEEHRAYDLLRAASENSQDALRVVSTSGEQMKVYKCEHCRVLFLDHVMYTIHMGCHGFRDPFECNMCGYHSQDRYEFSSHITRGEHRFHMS
T4 sequence (Q96SW2 whole entry): as the sequence (Q96SW2 whole entry) above
T4 sequence (Q16531 whole entry partner): as the sequence (Q16531 whole entry partner) above

SMILES: O=C1CCC(N2Cc3c(CN4CCC(c5ccc(Cl)cc5)CC4)cccc3C2=S)C(=O)N1 (centres unmarked) [GT-08594, 3-(4-((4-(4-chlorophenyl)piperidin-1-yl)methyl)-1-thioxoisoindolin-2-yl)piperidine-2,6-dione]
- IKZF2 substrate protein remaining % (IKZF2): A (0% ≤ substrate protein remaining % ≤ 80%)
- CK1α substrate protein remaining % (CK1α): B (80%< substrate protein remaining %≤ 100%)
- Wee1 substrate protein remaining % (WEE1): A (0% ≤ substrate protein remaining % ≤ 80%)
- IKZF 1 substrate protein remaining % (IKZF1): B (80%< substrate protein remaining %≤ 100%)
- IKZF3 substrate protein remaining % (IKZF3): B (80%< substrate protein remaining %≤ 100%)
- GSPT1 substrate protein remaining % (GSPT1): B (80%< substrate protein remaining %≤ 100%)
- inhibition at 0.5 µM [1]: 30 to 40%
- inhibition at 2 µM [1]: 53 to 60%

SMILES: O=C1CCC(N2Cc3c(CN4CCC(c5ccccc5C(F)(F)F)CC4)cccc3C2=S)C(=O)N1 (centres unmarked) [GT-08598, 3-(1-thioxo-4-((4-(2-(trifluoromethyl)phenyl)piperidin-1-yl)methyl)isoindolin-2-yl)piperidine-2,6-dione]
- IKZF2 substrate protein remaining % (IKZF2): B (80%< substrate protein remaining %≤ 100%)
- CK1α substrate protein remaining % (CK1α): B (80%< substrate protein remaining %≤ 100%)
- Wee1 substrate protein remaining % (WEE1): A (0% ≤ substrate protein remaining % ≤ 80%)
- IKZF 1 substrate protein remaining % (IKZF1): B (80%< substrate protein remaining %≤ 100%)
- IKZF3 substrate protein remaining % (IKZF3): B (80%< substrate protein remaining %≤ 100%)
- GSPT1 substrate protein remaining % (GSPT1): A (0% ≤ substrate protein remaining % ≤ 80%)
- inhibition at 0.5 µM [1]: 40 to 53%
- inhibition at 2 µM [1]: 60 to 80%

SMILES: O=C1CCC(N2Cc3c(CN4CCC(c5cccc(C(F)(F)F)c5)CC4)cccc3C2=S)C(=O)N1 (centres unmarked) [GT-08599, 3-(1-thioxo-4-((4-(3-(trifluoromethyl)phenyl)piperidin-1-yl)methyl)isoindolin-2-yl)piperidine-2,6-dione]
- IKZF2 substrate protein remaining % (IKZF2): B (80%< substrate protein remaining %≤ 100%)
- CK1α substrate protein remaining % (CK1α): B (80%< substrate protein remaining %≤ 100%)
- Wee1 substrate protein remaining % (WEE1): A (0% ≤ substrate protein remaining % ≤ 80%)
- IKZF 1 substrate protein remaining % (IKZF1): B (80%< substrate protein remaining %≤ 100%)
- IKZF3 substrate protein remaining % (IKZF3): B (80%< substrate protein remaining %≤ 100%)
- GSPT1 substrate protein remaining % (GSPT1): B (80%< substrate protein remaining %≤ 100%)
- inhibition at 0.5 µM [1]: 30 to 40%
- inhibition at 2 µM [1]: 60 to 80%

SMILES: Cc1ccccc1N1CCN(Cc2ccc3c(c2)CN(C2CCC(=O)NC2=O)C3=S)CC1 (centres unmarked) [GT-08601, 3-(1-thioxo-5-((4-(o-tolyl)piperazin-1-yl)methyl)isoindolin-2-yl)piperidine-2,6-dione]
- IKZF2 substrate protein remaining % (IKZF2): B (80%< substrate protein remaining %≤ 100%)
- CK1α substrate protein remaining % (CK1α): B (80%< substrate protein remaining %≤ 100%)
- Wee1 substrate protein remaining % (WEE1): B (80%< substrate protein remaining %≤ 100%)
- IKZF 1 substrate protein remaining % (IKZF1): B (80%< substrate protein remaining %≤ 100%)
- IKZF3 substrate protein remaining % (IKZF3): B (80%< substrate protein remaining %≤ 100%)
- GSPT1 substrate protein remaining % (GSPT1): A (0% ≤ substrate protein remaining % ≤ 80%)
- inhibition at 0.5 µM [1]: 40 to 53%
- inhibition at 2 µM [1]: 80 to 100%
